This is an account of results in ChEMBL document CHEMBL4627398 (J Med Chem, 2020).

≈ marks a conversion by molar mass, not a printed value. Bounds are passed on as bounds.

Data set [1] in a line: Metabolic stability in monkey liver microsomes incubated for 60 mins. The following applies: rhesus monkey, read-out: Stability. The class given is ADME, Macaca mulatta, Microsome. A general note: Microsomes from liver hold many membrane-bound enzymes, among them those of drug oxidation.
A short description of data set [2]: Metabolic stability in human liver microsomes incubated for 60 mins. The class given is ADME, Microsome. The following applies: read-out: Stability.
Data set [3] can be described thus: Clearance in monkey at 0.1 mg/kg, iv. The data set is classed as ADME, organism-based, Macaca mulatta. The following applies: rhesus monkey, in vivo.
Data set [4] in a line: Solubility of the compound in FeSSIF. The class given is physicochemical.
Data set [5] in a line: Solubility of the compound in human Caco2 cells. The data set is classed as ADME, cell-based. The note with it: Caco-2 cells.
Data set [6] can be described thus: Metabolic stability in monkey hepatocytes incubated for 60 mins. The data set is classed as ADME, cell-based, Macaca mulatta, Hepatocyte. The note with it: rhesus monkey, read-out: Stability.
A short description of data set [7]: Solubility of the compound in PBS buffer. The data set is classed as physicochemical.
Data set [8] is described as follows: MRT in rat at 1 mg/kg, iv. The note with it: in vivo. The data set is classed as ADME, organism-based.
The nature of data set [9]: Total clearance in rat at 1 mg/kg, iv. The data set is classed as ADME, organism-based. The following applies: in vivo.
A short description of data set [10]: Terminal half life in dog at 0.3 mg/kg, iv. The class given is ADME, organism-based, Canis lupus familiaris. The note with it: in vivo, read-out: beta t1/2 (converted).
A short description of data set [11]: Tmax in rat at 10 mg/kg, po. The data set is classed as ADME, organism-based. The note with it: in vivo.
Data set [12] can be described thus: Total clearance in dog at 0.3 mg/kg, iv. The class given is ADME, organism-based, Canis lupus familiaris. The following applies: in vivo.
Data set [13] can be described thus: Tmax in dog at 1 mg/kg, po. The data set is classed as ADME, organism-based, Canis lupus familiaris. The note with it: in vivo.
Data set [14] is described as follows: MRT in dog at 0.3 mg/kg, iv. The following applies: in vivo. The data set is classed as ADME, organism-based, Canis lupus familiaris.
Data set [15] is described as follows: Oral bioavailability in rat at 10 mg/kg. The class given is ADME, organism-based. The note with it: in vivo.
Data set [16] in a line: Solubility of the compound in FaSSIF. The class given is physicochemical.
A short description of data set [17]: Apparent permeability in human Caco2 cells. The class given is ADME, cell-based. The following applies: Caco-2. For orientation: Caco-2 monolayers are a common model of the intestinal barrier.
A short description of data set [18]: Metabolic stability in dog liver microsomes incubated for 60 mins. The data set is classed as ADME, Canis lupus familiaris, Microsome. The following applies: read-out: Stability.
Data set [19] is described as follows: Metabolic stability in rat liver microsomes incubated for 60 mins. The data set is classed as ADME, Microsome. The note with it: read-out: Stability.
Data set [20] is described as follows: Metabolic stability in human hepatocytes incubated for 60 mins. The data set is classed as ADME, cell-based, Hepatocyte. The following applies: read-out: Stability.
Data set [21] is described as follows: Volume of distribution at steady state in dog at 0.3 mg/kg, iv. The data set is classed as ADME, organism-based, Canis lupus familiaris. The note with it: in vivo, read-out: Vdss.
Data set [22] is described as follows: Cmax in rat at 10 mg/kg, po. The class given is ADME, organism-based. Further details: dose 10 mg/kg, route oral. The note with it: in vivo.
The nature of data set [23]: Cmax in dog at 1 mg/kg, po. The class given is ADME, organism-based, Canis lupus familiaris. Further details: dose 1 mg/kg, route oral. The following applies: in vivo.
A short description of data set [24]: Volume of distribution at steady state in rat at 1 mg/kg, iv. The class given is ADME, organism-based. The following applies: in vivo, read-out: Vdss.
Data set [25] in a line: Terminal half life in rat at 1 mg/kg, iv. The data set is classed as ADME, organism-based. The note with it: in vivo, read-out: beta t1/2 (converted).
The nature of data set [26]: Metabolic stability in rat hepatocytes incubated for 60 mins. The class given is ADME, cell-based, Hepatocyte. The note with it: read-out: Stability.
The nature of data set [27]: Lipophilicity, logD of the compound at pH 7. The data set is classed as physicochemical. The note with it: buffer.
The nature of data set [28]: Oral bioavailability in dog at 1 mg/kg. The class given is ADME, organism-based, Canis lupus familiaris. The note with it: in vivo.

Turning to `CC1CN(C(=O)CC#N)C12CCCN(c1ncnc3[nH]ccc13)C2` (stereo not given), the remaining at 1 h turned out to be 25.1% in data set [1] and 73.4% in data set [2].
`N#CCC(=O)N1CCC12CCCN(c1ncnc3[nH]ccc13)C2` (single isomer, unassigned): the clearance (in general, a measure of how efficiently the substance is removed, as volume per time) in data set [3] was 12.7 mL/min/kg. In addition, the remaining at 1 h in data set [1] came to 85.2%; in [2], 93.4%.
The corresponding values for `N#CCC(=O)N1CC(F)(F)C12CCN(c1ncnc3[nH]ccc13)C2` (single isomer, unassigned) are 5.83 mL/min/kg, 95.4% and 99.4%.
As to `N#CCC(=O)N1CC(F)(F)C12CCCN(c1ncnc3[nH]ccc13)C2` (single isomer, unassigned), the remaining at 1 h was found to be 64.6% in data set [1] and 88.4% in data set [2].
The corresponding values for `N#CCC(=O)N1CCCC12CCCN(c1ncnc3[nH]ccc13)C2` (single isomer, unassigned) are 29.4% and 75.7%.
With `C[C@H]1CN(C(=O)CC#N)[C@]12CCN(c1ncnc3[nH]ccc13)C2` [DELGOCITINIB], the solubility – broadly, the concentration that dissolves in the medium under given conditions – in data set [4] is over 475 µM; in data set [5], 1 µM (≈ 0.31 µg/mL); in data set [7], over 95 µM; in data set [16], over 475 µM. The clearance in data set [3] was 4.83 mL/min/kg; in data set [9] it was 35 mL/min/kg; in data set [12], 6.17 mL/min/kg. The remaining at 1 h in data set [6] worked out at 84.8%; in [1], 99.6%; in data set [2], 97.4%; in data set [18], 97.2%; in data set [19], 90.2%; in [20] it was 99.3%. The remaining at 1 h in [26] was 94.7%. Further, the MRT (as a rule, the average time that molecules of a dose stay in the body) in data set [8] was 1 h; in data set [14], 3.2 h. Also, the half-life in data set [10] is 2.3 h; in data set [25], 1.7 h. In addition, the Tmax – broadly, the time from dosing to the highest level – in data set [11] was determined as 1.5 h; in [13] it was 0.9 h. In addition, the figures for the bioavailability in [15] and in data set [28] were 78% and 124%, respectively. In [17], the Papp (as a rule, a coefficient for how fast a substance crosses the barrier) is 0.033 ×10⁻⁶ cm/s. Also, the Vd worked out at 1.2 L/kg in data set [21] and 2.1 L/kg in data set [24]. Moreover, the Cmax (commonly the peak of the concentration-time curve) in data set [22] was determined as 2.5 ng/mL; in data set [23], 1.9 ng/mL. Also, the logD (commonly lipophilicity at a set pH, counting ionised and neutral species) in data set [27] came to 0.6.
